Results on five compounds are retold here after publication PMC5641865, “A screen for kinase inhibitors identifies antimicrobial imidazopyridine aminofurazans as specific inhibitors of the Listeria monocytogenes PASTA kinase PrkA” (The Journal of Biological Chemistry, 2017).

Type in all cases: biochemical
The target of assay [1] is T1, PrkA kinase domain; PrkA(1-338) (Listeria monocytogenes, UniProt A0A0H3GI69).
T1 construct: gene LMRG_00967; cytosolic kinase domain, residues 1-338, pGEX-2T GST fusion from E. coli Rosetta BL21, GST cut off with thrombin
The assay is described as follows: Kinase-Glo ATP depletion assay. The text has this:
Kinase-Glo ATP depletion assay on PrkA kinase domain; PrkA(1-338)

The target of assay [2] is T2, Stk1 kinase domain (Staphylococcus aureus, UniProt A0A0H2XGG5).
T2 construct: gene pknB; cytosolic kinase domain, residues 1-348, pGEX-2T GST fusion from E. coli Rosetta BL21, GST cut off with thrombin; Mn2+ in place of Mg2+
The assay can be described thus: Kinase-Glo ATP depletion assay.

Assay [3] addresses T2, Stk1 kinase domain. The assay can be described thus: kinase inhibition assay (supplement).
[4] abbreviates: read-out: Relative IC50 (95% CI).

Each structure is given as a SMILES string. pIC50: −log10 of the molar value. Where two headings read alike, the source gives them in different places.

T1 sequence (A0A0H3GI69 entry or part of it): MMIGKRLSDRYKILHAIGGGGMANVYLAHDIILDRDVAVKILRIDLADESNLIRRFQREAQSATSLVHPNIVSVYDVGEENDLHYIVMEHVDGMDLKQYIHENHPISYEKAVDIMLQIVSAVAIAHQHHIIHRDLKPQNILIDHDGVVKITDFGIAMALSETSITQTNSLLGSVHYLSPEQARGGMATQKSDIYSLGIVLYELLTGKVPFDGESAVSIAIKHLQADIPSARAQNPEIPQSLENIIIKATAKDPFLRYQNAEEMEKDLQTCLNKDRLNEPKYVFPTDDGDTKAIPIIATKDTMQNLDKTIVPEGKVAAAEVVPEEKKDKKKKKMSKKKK
T2 sequence (A0A0H2XGG5 entry or part of it): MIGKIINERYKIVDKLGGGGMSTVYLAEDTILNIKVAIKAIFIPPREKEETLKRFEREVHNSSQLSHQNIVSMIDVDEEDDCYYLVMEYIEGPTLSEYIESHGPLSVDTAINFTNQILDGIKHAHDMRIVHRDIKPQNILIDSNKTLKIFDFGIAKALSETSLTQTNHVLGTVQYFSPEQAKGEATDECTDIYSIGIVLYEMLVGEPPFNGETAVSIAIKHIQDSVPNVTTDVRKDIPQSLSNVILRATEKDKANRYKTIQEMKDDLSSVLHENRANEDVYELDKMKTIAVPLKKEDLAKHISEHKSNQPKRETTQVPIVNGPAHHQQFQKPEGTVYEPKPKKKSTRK

With `CCn1c(-c2nonc2N)nc2c(C#CC(C)(C)O)ncc(OCC3CCNCC3)c21` [GSK554170A], in assay [1] (setting [4]), the pIC50 is 6.35.

Take `CCn1c(-c2nonc2N)nc2c(C#CC(C)(C)O)ncc(OC[C@@H]3CCCN3)c21` [GSK614526A]: the pIC50 in assay [1] is 6.38. For `CCn1c(-c2nonc2N)nc2c(C#CC(C)(C)O)ncc(OC[C@H]3CCCNC3)c21` [GSK690693], the results for the pIC50 (on Stk1 kinase domain [2]; in assay [1] (setting [4])) were less than 4.40 and 6.08, respectively. In the case of `CCn1c(-c2nonc2N)nc2c(C#CC(C)(C)O)nc(OCCN)cc21` [GSK902056A], the negative logarithm of the IC50 (pIC50) in assay [1] (setting [4]) is 6.39. For `O=C1Nc2ccccc2C1=C1Nc2ccccc2C1=NO` [indirubin-3′-monoxime], the “kinase inhibition assay (supplement)” value on Stk1 kinase domain [3] was “Stk1 can be biochemically inhibited by the kinase inhibitor indirubin-3′-monoxime”.
